Source: patent publication US20060029967A1, “Assay for nitrous oxide neurologic syndrome” (priority 2002, published 2006)

Assays:
methionine synthase [1] = target: T1, methionine synthase (Homo sapiens, UniProt Q99707); assay: Case report: infant with MTHFR deficiency anesthetized with nitrous oxide; type: in vivo; set-up: from tissue; host or cells: patient in vivo; no tissue assayed for methionine synthase; conditions: infant with inherited MTHFR deficiency; two anesthetics with 60% nitrous oxide and 0.75% halothane (45 and 270 minutes)
T1 sequence (Q99707 whole entry): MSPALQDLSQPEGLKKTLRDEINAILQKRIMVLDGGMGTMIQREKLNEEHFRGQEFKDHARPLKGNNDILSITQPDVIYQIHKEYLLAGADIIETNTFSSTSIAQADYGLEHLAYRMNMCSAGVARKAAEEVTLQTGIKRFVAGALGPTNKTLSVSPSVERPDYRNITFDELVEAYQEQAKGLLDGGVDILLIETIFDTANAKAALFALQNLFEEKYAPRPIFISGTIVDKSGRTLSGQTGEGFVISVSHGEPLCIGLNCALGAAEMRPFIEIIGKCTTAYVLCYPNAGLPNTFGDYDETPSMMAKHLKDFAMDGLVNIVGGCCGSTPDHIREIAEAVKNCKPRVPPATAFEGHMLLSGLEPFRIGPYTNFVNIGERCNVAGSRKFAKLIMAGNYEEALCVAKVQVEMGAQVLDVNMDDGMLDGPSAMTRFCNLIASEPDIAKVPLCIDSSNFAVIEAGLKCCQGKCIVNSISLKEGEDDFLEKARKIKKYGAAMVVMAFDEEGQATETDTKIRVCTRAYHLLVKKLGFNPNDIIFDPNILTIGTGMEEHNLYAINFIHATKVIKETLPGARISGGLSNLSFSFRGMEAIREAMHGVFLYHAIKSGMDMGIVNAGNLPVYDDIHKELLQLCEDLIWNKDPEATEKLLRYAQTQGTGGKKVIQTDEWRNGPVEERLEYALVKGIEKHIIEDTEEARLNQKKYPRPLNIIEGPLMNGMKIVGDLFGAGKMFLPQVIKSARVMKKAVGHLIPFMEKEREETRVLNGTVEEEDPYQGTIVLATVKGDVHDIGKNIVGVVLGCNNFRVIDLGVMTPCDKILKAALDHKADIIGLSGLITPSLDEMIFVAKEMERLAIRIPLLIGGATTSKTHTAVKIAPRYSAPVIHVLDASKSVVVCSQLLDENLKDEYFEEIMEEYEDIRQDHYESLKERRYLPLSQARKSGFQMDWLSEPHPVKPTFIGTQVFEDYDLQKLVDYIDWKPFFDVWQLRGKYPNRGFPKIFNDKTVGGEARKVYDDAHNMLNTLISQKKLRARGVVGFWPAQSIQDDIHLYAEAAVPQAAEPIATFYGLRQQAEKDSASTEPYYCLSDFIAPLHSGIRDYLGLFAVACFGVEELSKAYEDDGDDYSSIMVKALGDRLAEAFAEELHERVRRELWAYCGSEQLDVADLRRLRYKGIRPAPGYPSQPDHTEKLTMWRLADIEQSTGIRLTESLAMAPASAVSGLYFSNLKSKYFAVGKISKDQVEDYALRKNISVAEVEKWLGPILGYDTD
Excerpt: A child discovered to have 5,10-methylenetetrahydrofolate reductase (MTHFR, […]) deficiency (OMIM #236250) died after two anesthetics using nitrous oxide (Beckman, D. R., et al., Birth Defects Orig. Artic. Ser. 23:47-64, 1987). MTHFR catalyzes the synthesis of 5-methyltetrahydrofolate. Sequence analysis of RNA transcripts and genomic DNA from the patient and family members, together with direct assays of fibroblast MTHFR activity, reveal that the enzyme deficiency was caused by a novel MTHFR mutation (1755→A) which changes conserved methionine 581 to an isoleucine, co-inherited with two common MTHFR polymorphisms (677C→T, 1298A→C) each associated with depressed enzyme function. (Frosst, P., et al., Nat. Genet. 10:111-3, 1995; van der Put, N. M., et al., Am. J. Hum. Genet. 62:1044-51, 1998).
The patient was normal […] when a mass was noted on the left lower extremity. Although not recognized prior to the patient's surgery, both the parent and uncle have serum total homocysteine levels >30.0 μM (normal 5.4-13.9 μM). On life-long, high dose vitamin B supplements, the proband's sibling has a homocysteine level of 4.3 μM. Neither the […] nor the sibling has received nitrous oxide. […]

methionine synthase [2] = target: T1, methionine synthase; conditions: cited from earlier work
methionine synthase [3] = target: T1, methionine synthase; conditions: recovery in cultured cells; de novo synthesis of the enzyme required to restore activity; cited from earlier work
methionine synthase [4] = target: methionine synthase (Rattus norvegicus, UniProt Q9Z2Q4); conditions: rats exposed to nitrous oxide; cited from earlier work
methionine synthase (Rattus norvegicus, UniProt Q9Z2Q4), sequence (Q9Z2Q4 whole entry): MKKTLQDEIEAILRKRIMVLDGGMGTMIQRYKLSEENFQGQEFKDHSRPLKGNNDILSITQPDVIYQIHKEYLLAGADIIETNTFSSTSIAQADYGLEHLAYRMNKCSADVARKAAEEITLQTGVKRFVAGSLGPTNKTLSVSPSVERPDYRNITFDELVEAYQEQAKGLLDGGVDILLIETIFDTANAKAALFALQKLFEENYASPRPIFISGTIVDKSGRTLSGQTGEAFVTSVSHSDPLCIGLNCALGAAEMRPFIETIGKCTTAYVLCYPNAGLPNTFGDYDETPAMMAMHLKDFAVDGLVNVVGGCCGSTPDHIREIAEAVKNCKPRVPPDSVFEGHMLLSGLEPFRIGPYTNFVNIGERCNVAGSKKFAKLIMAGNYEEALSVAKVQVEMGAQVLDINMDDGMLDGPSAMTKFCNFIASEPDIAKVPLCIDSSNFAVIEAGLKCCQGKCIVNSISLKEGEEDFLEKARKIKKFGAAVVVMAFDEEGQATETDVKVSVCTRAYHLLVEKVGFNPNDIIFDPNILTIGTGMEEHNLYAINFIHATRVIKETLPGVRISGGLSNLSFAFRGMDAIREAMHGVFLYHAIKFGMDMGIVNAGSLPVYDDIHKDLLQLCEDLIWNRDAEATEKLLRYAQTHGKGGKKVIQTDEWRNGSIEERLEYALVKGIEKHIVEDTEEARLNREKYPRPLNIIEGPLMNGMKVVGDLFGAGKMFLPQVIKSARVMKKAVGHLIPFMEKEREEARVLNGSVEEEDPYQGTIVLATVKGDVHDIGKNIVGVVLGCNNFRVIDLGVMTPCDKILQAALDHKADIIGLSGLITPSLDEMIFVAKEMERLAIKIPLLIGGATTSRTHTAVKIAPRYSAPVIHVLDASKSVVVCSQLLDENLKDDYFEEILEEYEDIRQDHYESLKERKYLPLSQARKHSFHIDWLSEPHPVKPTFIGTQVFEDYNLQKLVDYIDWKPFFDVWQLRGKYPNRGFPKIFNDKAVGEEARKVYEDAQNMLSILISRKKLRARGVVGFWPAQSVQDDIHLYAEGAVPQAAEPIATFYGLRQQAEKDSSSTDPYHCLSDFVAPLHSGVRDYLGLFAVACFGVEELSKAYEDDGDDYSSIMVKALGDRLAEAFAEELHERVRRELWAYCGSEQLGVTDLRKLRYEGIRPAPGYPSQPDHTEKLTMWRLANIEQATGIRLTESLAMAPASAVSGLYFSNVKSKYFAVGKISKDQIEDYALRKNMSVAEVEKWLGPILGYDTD

methionine synthase [5] = target: methionine synthase (Mus musculus, UniProt A6H5Y3); conditions: mice exposed to nitrous oxide; cited from earlier work
methionine synthase (Mus musculus, UniProt A6H5Y3), sequence (A6H5Y3 whole entry): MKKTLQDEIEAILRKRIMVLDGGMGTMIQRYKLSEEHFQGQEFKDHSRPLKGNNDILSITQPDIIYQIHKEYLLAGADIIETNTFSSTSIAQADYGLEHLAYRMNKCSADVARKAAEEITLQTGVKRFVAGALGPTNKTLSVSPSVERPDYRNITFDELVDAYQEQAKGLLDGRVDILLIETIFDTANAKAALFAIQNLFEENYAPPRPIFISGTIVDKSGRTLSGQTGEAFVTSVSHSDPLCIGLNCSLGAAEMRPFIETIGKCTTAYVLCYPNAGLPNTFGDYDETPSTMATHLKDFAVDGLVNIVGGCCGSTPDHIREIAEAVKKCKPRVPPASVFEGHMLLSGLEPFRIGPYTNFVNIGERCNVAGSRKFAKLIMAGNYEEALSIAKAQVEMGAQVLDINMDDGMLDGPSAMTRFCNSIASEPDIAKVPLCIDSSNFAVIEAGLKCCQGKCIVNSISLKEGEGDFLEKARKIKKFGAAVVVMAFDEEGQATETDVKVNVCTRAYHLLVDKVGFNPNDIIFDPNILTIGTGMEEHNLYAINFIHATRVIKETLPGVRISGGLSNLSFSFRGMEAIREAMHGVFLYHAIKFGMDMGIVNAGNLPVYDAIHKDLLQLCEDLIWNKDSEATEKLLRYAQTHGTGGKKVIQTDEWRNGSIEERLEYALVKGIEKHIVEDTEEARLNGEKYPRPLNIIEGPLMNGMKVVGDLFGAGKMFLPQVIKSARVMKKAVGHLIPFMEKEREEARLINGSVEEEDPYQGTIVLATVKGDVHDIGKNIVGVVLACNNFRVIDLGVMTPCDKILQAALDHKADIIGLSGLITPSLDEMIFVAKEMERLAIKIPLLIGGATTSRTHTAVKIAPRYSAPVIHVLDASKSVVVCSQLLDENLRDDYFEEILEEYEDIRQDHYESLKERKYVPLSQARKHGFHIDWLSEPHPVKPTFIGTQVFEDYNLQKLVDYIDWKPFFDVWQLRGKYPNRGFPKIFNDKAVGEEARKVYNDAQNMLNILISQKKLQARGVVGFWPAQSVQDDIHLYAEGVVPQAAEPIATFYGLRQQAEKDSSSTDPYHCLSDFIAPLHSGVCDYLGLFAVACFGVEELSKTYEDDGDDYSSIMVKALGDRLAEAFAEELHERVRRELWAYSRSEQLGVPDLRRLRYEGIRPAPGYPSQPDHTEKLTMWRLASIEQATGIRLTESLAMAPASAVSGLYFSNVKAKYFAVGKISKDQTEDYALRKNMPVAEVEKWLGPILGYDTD

methionine synthase [6] = conditions: pigs exposed to nitrous oxide; cited from earlier work

[N-]=[N+]=O [nitrous oxide]
clinical outcome after nitrous oxide anesthesia (methionine synthase [1]): caused the patient's death
Residual methionine synthase activity (methionine synthase [2]; following greater than 200 minutes of nitrous oxide administration): approaches zero
mean half-time of inactivation of methionine synthase (methionine synthase [2]; nitrous oxide administration): 46 min
nature of nitrous oxide-mediated inhibition (methionine synthase [3]): irreversible
delayed recovery of enzyme activity (methionine synthase [4]): ≥ 4 days
delayed recovery of enzyme activity (methionine synthase [5]): ≥ 4 days
delayed recovery of enzyme activity (methionine synthase [6]): ≥ 4 days
